From patent US8148392B2, “2-indolyl imidazo [4,5-d] phenanthroline derivatives and their use in the treatment of cancer” (Lorus Therapeutics Inc., priority 2005, dated 2012)
Entries after “also recorded” stand apart in the source; their conditions may differ.

Assays:
HT-29 cells = experiment: Effect of exogenous metals on growth inhibition of HT-29 cells (XTT); assay type: cell-based, human; details: HT-29, 5 days; for effect of exogenous zinc on growth inhibition: ZnCl2 (100 μM)
Description: To determine whether metal chelation is involved in the growth inhibitory activity of compounds of Formula I, exogenous metals (ZnCl2, FeCl2.4H2O, FeCl3.4H2O, MgCl2, at 100 μM) were incubated with HT-29 cells, simultaneously with control vehicle DMSO, compound 3 (5 μM), or compound 13 (25 μM), for 5 days. […] Growth inhibition by compound 13 is predicted to occur through a different mechanism than compound 3.
To determine whether chelation of copper is involved in the growth inhibitory activity of compounds of Formula I, HT-29 cells were incubated with up to 5 μM of compound 3, in the presence or absence of 25 μM CuSO4.5H20 for 5 days.
To determine whether metal chelation is involved in the growth inhibitory activity of compound 3, various concentrations of exogenous metals were incubated with HT-29 cells, simultaneously with various concentrations of compound 3, for 5 days. The exogenous metals tested were: ZnCl2 (zinc), CuSO4.5H20 (copper), FeCl2 (iron II), FeCl3.4H20 (iron III), MgCl2 (magnesium), and CaCl2.2H20 (calcium). HT-29 cells (4×10^3/well) in 100 μL volume of the growth medium were seeded in 96-well cell culture plates and incubated overnight at 37° C. The medium was removed and replaced with a total volume of 100 μl growth medium containing concentrations of metal ions as shown in FIG. 5 with compound 3 or 0.1% DMSO vehicle control. After incubation of the cells at 37° C. for 5 days, cell viability was quantitated using the XTT (sodium 3′-[1-(phenylamino-carbonyl)-3,4-tetrazolium}-bis (4-methoxy-6-nitro) benzene sulfonic acid hydrate) calorimetric assay (Roche Applied Science, Penzberg, Germany). XTT labeling reagent (1 mg/mL) was mixed with electron-coupling reagent, following the manufacturer's instructions, and 50 μl of the mixture was added directly to the cells cultured in 100 μl growth medium. The plates were further incubated at 37° C. for 4 hours and the absorbance of each well was measured by a multi-well spectrophotometer (Bio-Tek Instruments Inc.) at 460 nm. The data were adjusted relative to the blank, and were expressed as % of cell growth compared to the DMSO control.
To determine the ability of compounds 5 and 7 to chelate metals in cells, exogenous metals were added to HT-29 cells, simultaneously with various concentrations of compounds 5 and 7. Briefly, HT-29 cells were treated with various concentrations compounds 5 and 7, plus or minus copper (25 μM CuSO4.5H20) or zinc (100 μM of ZnCl2), for 5 days. Cell viability was determined by XTT assay. The effects of copper and zinc on growth inhibition of HT-29 cells are shown in FIG. 6A for compound 5 and in FIG. 6B for compound 7.
Effect of metal ion supplements on compound 3-mediated cell growth inhibition of HT-29 cells was examined by XTT cell proliferation assay.

[1] = tested on: human leukemia CCRF-CEM cells; experiment: Cell cycle analysis by flow cytometry, CCRF-CEM; assay type: cell-based; details: 0.25-1 μM, 24 hours
Description: To test the ability of compounds of Formula I to block cell cycle progression, compound 3 was incubated with human colon carcinoma HT-29 or human leukemia CCRF-CEM cells to determine alterations in populations of cells at different stages of the cell cycle using flow cytometric analysis. HT-29 cells were maintained as described in Example 13. CCRF-CEM cells used in this example and subsequent examples were maintained as suspension cells in a growth medium; RPMI-1640 medium (Sigma, St. Louis, Mo.), supplemented with 2 mM L-glutamine (Gibco, Grand Island, N.Y.), 10% fetal bovine serum (FBS) (Multicell, WISENT Inc. St-Bruno, QC), antibiotic-antimycotic (Multicell), at 37° C. in a 5% CO2-humidified incubator.
The assay was carried out as follows. For HT-29 cells, 1×10^6 cells in 10 mL volume of the growth medium were seeded in 100 mm dishes. For CCRF-CEM cells, 3×10^6 cells in 10 mL volume of the growth medium were seeded in 25 cm^2 flask. […] The fluorescence of stained cells was analyzed using FACScan flow cytometer and the Cell Quest program (BD Biosciences, San Jose, Calif.). Data were evaluated using Modfit software (Verity software House, Topsham, Me.). Values were determined by gate analysis of flow cytometric plots. […]

Egr-1 = Egr-1 gene expression in HT-29 cells, RT-PCR; assay type: cell-based, human
Description: Like Sp1, Egr-1 also is a transcription factor with zinc finger DNA-binding domains, which recognizes GC-rich sequences in the regulatory promoter region of the targeted gene (Al-Sarraj et al., (2005) J. Cell Biochem. 94(1): 153-167). Changes in Egr-1 gene expression were detected in compound 3-treated HT-29 cells by RT-PCR (FIG. 44A) as follows. HT-29 cells were treated with 1 μM compound 3 for the indicated times. Total RNA was extracted and gene expression level was determined by RT-PCR. To determine the effects of zinc supplement, HT-29 cells were treated with 1 μM compound 3, 35 μM ZnCl2 or compound 3 and ZnCl2 together for 8 hr. Egr-1 gene expression was determined by RT-PCR (FIG. 44B).

[2] = 25 μM CuSO4, low concentrations of compound (less than 2 μM)

Cc1[nH]c2ccc(F)cc2c1-c1nc2c3cccnc3c3ncccc3c2[nH]1 [Compound 7]
effect of exogenous copper on growth inhibition (HT-29 cells; [2]): copper impaired the activity only at low concentrations | effect of exogenous zinc on growth inhibition (HT-29 cells): zinc impaired the growth inhibitory activities

Cc1[nH]c2ccccc2c1-c1nc2c3cccnc3c3ncccc3c2[nH]1 [Compound 3]
cell cycle progression [1]: induced a block in cell cycle progression at the G1 phase | effect of iron(III), magnesium and calcium on growth inhibition (HT-29 cells): essentially no effect | effect of exogenous copper on growth inhibition (HT-29 cells; 25 μM CuSO4, high concentrations of compound (>2.5 μM)): significantly enhanced the activity | effect of exogenous copper on growth inhibition (HT-29 cells; [2]): Copper impaired the growth inhibitory activities | effect of exogenous zinc on growth inhibition (HT-29 cells): completely impaired; also recorded: impaired the growth inhibitory activities; also recorded: completely reversed by zinc only | effect of excess iron and magnesium on growth inhibition (HT-29 cells; metals at 100 μM, compound 3 5 μM): no effect | Egr-1 expression change with zinc supplement (Egr-1; HT-29, 1 μM compound plus 35 μM ZnCl2, 8 hr): reversible upon addition of zinc supplement | Egr-1 gene expression (Egr-1; HT-29, 1 μM, as early as 2 hr): significant increase in Egr-1 gene expression
